Experimental findings from publication PMC12679848, “Sulphonamide derivatives with a triazine core as novel inducers of apoptosis and pyroptosis in glioblastoma multiforme cells” (Journal of Enzyme Inhibition and Medicinal Chemistry, 2025) are described below.

One assay relates to A172 xenografts. Nature of the assay: Zebrafish xenograft, A172. The assay is classed as in vivo. The note with it: 10 µM, 48 h, 0.1% DMSO control 4%. The procedure:
(§1) In our study, we used wild-type AB zebrafish embryos obtained from the certified Experimental Medicine Centre (Lublin, Poland). Adult zebrafish were raised at 28.5 °C under 14 h of light and 10 h of the dark cycle and fed in accordance with the guidelines established by the Research Animals Department of the RSPCA. Fertilised eggs were obtained by natural spawning; healthy clutches were processed for study or propagated for line maintenance. Embryos were maintained in the E3 medium (5 mM NaCl, 0.33 mM MgCl2, 0.33 mM CaCl2, 0.17 mM KCl; pH 7.2) at 28.5 °C. The use of animals in scientific research in Europe is governed by the Directive 2010/63/EU of 22 September 2010. […] All procedures in this study were performed on embryos up to 5 dpf.
(§2) A172 and U-87MG cell lines were labelled with Vybrant Did (Invitrogen, Waltham, MA, USA) according to the manufacturer’s protocol. Stained cells were re-suspended in Dulbecco’s modified Eagle’s medium (DMEM) at the final concentration of 1 × 10^7 cells/mL. 24 h post-fertilisation (hpf) zebrafish were manually dechorionated. […]
(§3) Xenograft imaging has been performed before (48 hpf) and after (120 hpf) drugs treatment using an EVOS M5000 Imaging System with the filter Cy5 (excitation: 628 nm; emission: 692 nm). […] Tumour sizes were analysed as the area of labelled tumour cells according Ali et al.[18] using EVOS software.

For another assay, the system named is U-87MG xenografts. Nature of the assay: Zebrafish xenograft, U-87 MG. Type of assay: in vivo. The conditions noted are these: U-87 MG zebrafish xenografts, 10 µM, 48 h; 0.1% DMSO control 22%. The procedure: as §1, §2, §3

As for `CCC(CO)NS(=O)(=O)c1ccc(-n2nc(C)c3nc4nnnn4nc32)cc1` (stereo in doubt) [MM118, N-(R)-(1-hydroxy-but-2-yl)-4-[7-methyl-5H-pyrazolo[4,3-e]tetrazolo[1,5-b][1]^,[2]^,[4]triazin-5-yl)]benzenesulfonamide], in the assay with A172 xenografts, the “average tumour size reduction” value came out at 55%. The tumour size reduction in the assay with U-87MG xenografts is 51%.

As to `CCC(CO)NS(=O)(=O)c1ccc(-n2nc(C)c3nc4nnnn4nc32)cc1` (stereo in doubt) [MM119, N-(S)-(1-hydroxy-but-2-yl)-4-[7-methyl-5H-pyrazolo[4,3-e]tetrazolo[1,5-b][1]^,[2]^,[4]triazin-5-yl)]benzenesulfonamide], in the assay with A172 xenografts, the “average tumour size reduction” value came to 56%. For the same compound, the tumour size reduction in the assay on U-87MG xenografts is given as 56%.
